# Reference: PubChem BioAssay AID1919008 (Molecular Pharmacology Branch, DTP, NCI, 2023)
# Tested on: DMS-114 complex spheroids with HUVEC/MSC, growth % test/control
# Assay: Anticancer human tumor DMS-114 cell line growth inhibition [AhR];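 also: spheroids exposed to agents for 7 days before readout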;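 as to viability, T/C: 100% = DMSO vehicle control wells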
# Conditions: for IC50: curve of first compound; for viability, T/C: stronger effect = lower value
# Method in brief: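 Agents were dosed in half-log steps down from roughly clinical Cmax, or from 10 microM where Cmax was unknown, alone and with AhR antagonists. Read-out: percent test/control growth of tumor spheroids containing HUVEC and MSC stromal cells.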
# [1] = second compound 0.1 µM, first compound 0.00316 µM
# [2] = second compound 0.1 µM, first compound 0.01 µM
# [3] = second compound 0.1 µM, first compound 0.0316 µM
# [4] = second compound 0.1 µM, first compound 0.1 µM
# [5] = second compound 0.316 µM, first compound 0.00316 µM
# [6] = second compound 0.316 µM, first compound 0.01 µM
# [7] = second compound 0.316 µM, first compound 0.0316 µM
# [8] = second compound 0.316 µM, first compound 0.1 µM
# [9] = second compound 1 µM, first compound 0.00316 µM
# [10] = second compound 1 µM, first compound 0.01 µM
# [11] = second compound 1 µM, first compound 0.0316 µM
# [12] = second compound 1 µM, first compound 0.1 µM
# [13] = second compound 3.16 µM, first compound 0.00316 µM
# [14] = second compound 3.16 µM, first compound 0.01 µM
# [15] = second compound 3.16 µM, first compound 0.0316 µM
# [16] = second compound 3.16 µM, first compound 0.1 µM
# [17] = second compound 10 µM, first compound 0.00316 µM
# [18] = second compound 10 µM, first compound 0.01 µM
# [19] = second compound 10 µM, first compound 0.0316 µM
# [20] = second compound 10 µM, first compound 0.1 µM
# [21] = second compound 0.1 µM, first compound 0.316 µM
# [22] = second compound 0.1 µM, first compound 1 µM
# [23] = second compound 0.1 µM, first compound 3.16 µM
# [24] = second compound 0.1 µM, first compound 10 µM
# [25] = second compound 0.316 µM, first compound 0.316 µM
# [26] = second compound 0.316 µM, first compound 1 µM
# [27] = second compound 0.316 µM, first compound 3.16 µM
# [28] = second compound 0.316 µM, first compound 10 µM
# [29] = second compound 1 µM, first compound 0.316 µM
# [30] = second compound 1 µM, first compound 1 µM
# [31] = second compound 1 µM, first compound 3.16 µM
# [32] = second compound 1 µM, first compound 10 µM
# [33] = second compound 3.16 µM, first compound 0.316 µM
# [34] = second compound 3.16 µM, first compound 1 µM
# [35] = second compound 3.16 µM, first compound 3.16 µM
# [36] = second compound 3.16 µM, first compound 10 µM
# [37] = second compound 10 µM, first compound 0.316 µM
# [38] = second compound 10 µM, first compound 1 µM
# [39] = second compound 10 µM, first compound 3.16 µM
# [40] = second compound 10 µM, first compound 10 µM
SMILES,IC50 (second compound 0.1 µM) [nM],IC50 (second compound 0.316 µM) [nM],IC50 (second compound 1 µM) [nM],IC50 (second compound 3.16 µM) [nM],IC50 (second compound 10 µM) [nM],"viability, T/C [3] [%]","viability, T/C [4] [%]","viability, T/C [7] [%]","viability, T/C [8] [%]","viability, T/C [11] [%]","viability, T/C [12] [%]","viability, T/C [15] [%]","viability, T/C [16] [%]","viability, T/C [19] [%]","viability, T/C [20] [%]","viability, T/C [21] [%]","viability, T/C [22] [%]","viability, T/C [25] [%]","viability, T/C [26] [%]","viability, T/C [29] [%]",other results
CC[C@@]1(O)C(=O)OCc2c1cc1n(c2=O)Cc2cc3c(CN(C)C)c(O)ccc3nc2-1 + Cc1ccccc1N=Nc1ccc(NC(=O)c2ccnn2C)c(C)c1,61.1,65.1,71.2,74.1,61.2,66.2,38,61.7,43,65,43.7,68.5,43.5,58,44.1,,,,,,"viability, T/C (second compound 0.1 µM, first compound 0.000316 µM): 99.3%; viability, T/C (second compound 0.1 µM, first compound 0.001 µM): 102%; viability, T/C [1]: 97.8%; viability, T/C [2]: 88.6%; viability, T/C (second compound 0.316 µM, first compound 0.000316 µM): 95%; viability, T/C (second compound 0.316 µM, first compound 0.001 µM): 106%; viability, T/C [5]: 100%; viability, T/C [6]: 102%; viability, T/C (second compound 1 µM, first compound 0.000316 µM): 99.2%; viability, T/C (second compound 1 µM, first compound 0.001 µM): 92.3%; viability, T/C [9]: 99.6%; viability, T/C [10]: 94%; viability, T/C (second compound 3.16 µM, first compound 0.000316 µM): 89.2%; viability, T/C (second compound 3.16 µM, first compound 0.001 µM): 92.1%; viability, T/C [13]: 93.2%; viability, T/C [14]: 83.4%; viability, T/C (second compound 10 µM, first compound 0.000316 µM): 91.8%; viability, T/C (second compound 10 µM, first compound 0.001 µM): 92.2%; viability, T/C [17]: 92.1%; viability, T/C [18]: 87.6%"
COc1cc(C2c3cc4c(cc3C(OC3OC5COC(C)OC5C(O)C3O)C3COC(=O)C23)OCO4)cc(OC)c1O (stereo not given) + Cc1ccccc1N=Nc1ccc(NC(=O)c2ccnn2C)c(C)c1,1740,1760,1470,1650,1750,99.4,99.1,105,100,97.7,92.4,100,96.4,90.7,92.5,93.4,59.7,84.4,56.9,84.4,"viability, T/C [23]: 40.4%; viability, T/C [24]: 26.5%; viability, T/C [27]: 43%; viability, T/C [28]: 25.5%; viability, T/C [30]: 52.2%; viability, T/C [31]: 43.6%; viability, T/C [32]: 29.6%; viability, T/C [33]: 81.7%; viability, T/C [34]: 59.4%; viability, T/C [35]: 37.9%; viability, T/C [36]: 26.4%; viability, T/C [37]: 82.7%; viability, T/C [38]: 57.6%; viability, T/C [39]: 42.2%; viability, T/C [40]: 27.7%"
COc1cccc2c1C(=O)c1c(O)c3c(c(O)c1C2=O)CC(O)(C(=O)CO)CC3OC1CC(N)C(O)C(C)O1 (stereo not given) + Cc1ccccc1N=Nc1ccc(NC(=O)c2ccnn2C)c(C)c1,81.6,110,107,104,98.4,71.6,44.9,75.5,52.5,71.4,51.8,71,50.7,68.7,48.8,17.1,1.65,19.4,1.84,18.3,"viability, T/C [23]: 0.32%; viability, T/C [24]: 0.78%; viability, T/C [27]: 0.33%; viability, T/C [28]: 1.22%; viability, T/C [30]: 2.28%; viability, T/C [31]: 0.52%; viability, T/C [32]: 0.56%; viability, T/C [33]: 19.3%; viability, T/C [34]: 1.97%; viability, T/C [35]: 0.59%; viability, T/C [36]: 0.61%; viability, T/C [37]: 21.6%; viability, T/C [38]: 1.61%; viability, T/C [39]: 0.52%; viability, T/C [40]: 0.7%"
Nc1ccn(C2OC(CO)C(O)C2(F)F)c(=O)n1 (stereo not given) + Cc1ccccc1N=Nc1ccc(NC(=O)c2ccnn2C)c(C)c1,< 31.6,< 31.6,< 31.6,< 31.6,< 31.6,21.8,23.8,25.6,28.2,25.5,24.6,25.4,27.7,29.2,32.7,25.1,23.9,26.3,23,26.5,"viability, T/C [23]: 25.7%; viability, T/C [24]: 25.5%; viability, T/C [27]: 23.2%; viability, T/C [28]: 24.2%; viability, T/C [30]: 23.7%; viability, T/C [31]: 26.4%; viability, T/C [32]: 25.7%; viability, T/C [33]: 28.3%; viability, T/C [34]: 24.9%; viability, T/C [35]: 26.8%; viability, T/C [36]: 28.5%; viability, T/C [37]: 29.4%; viability, T/C [38]: 31.7%; viability, T/C [39]: 31.7%; viability, T/C [40]: 30%"
Nc1ncn(C2CC(O)C(CO)O2)c(=O)n1 (stereo not given) + Cc1ccccc1N=Nc1ccc(NC(=O)c2ccnn2C)c(C)c1,> 1000,> 1000,> 1000,> 1000,> 1000,103,117,104,113,108,101,95.7,99.8,92.1,91,104,105,96.3,104,95.4,"viability, T/C [1]: 111%; viability, T/C [2]: 105%; viability, T/C [5]: 103%; viability, T/C [6]: 95.4%; viability, T/C [9]: 109%; viability, T/C [10]: 104%; viability, T/C [30]: 106%; viability, T/C [13]: 115%; viability, T/C [14]: 96.2%; viability, T/C [33]: 99.7%; viability, T/C [34]: 97.7%; viability, T/C [17]: 98.8%; viability, T/C [18]: 98.1%; viability, T/C [37]: 105%; viability, T/C [38]: 87.6%"
